Some test systems named below: Escherichia coli W3110; Enterococcus faecalis; Staphylococcus aureus; Serratia rubidaea X01; Escherichia coli 23A; Escherichia coli 27A; Staphylococcus aureus 6A; Yersinia pestis KIM pYV.
Common to all, as to assay: ≥ marks a high value that may be exact or a test limit, other limits are often not marked, values filed in µg/mL are converted to µM
Test [1] relates to Streptococcus sanguinis NY101.
Test [2] deals with Streptococcus sobrinus ATCC 33478.
Test [3] has as its system Streptococcus mutans UA159.
Test [4] concerns Pseudomonas aeruginosa PAK.
Test [5] concerns Staphylococcus aureus ATCC 2592.
Test [6] has as its system Pseudomonas aeruginosa 1.50.
Test [7] relates to Rhodococcus rhodochrous X15.
Test [8] concerns Escherichia coli ATCC 25922.
The subject of test [9] is Psychrobacter faecalis X29.
In test [10] the test system is Bacillus licheniformis X39.
Test [11] deals with Staphylococcus carnosus KHS.
Test [12] has as its system Candida albicans ATCC 2002.
The subject of test [13] is Staphylococcus aureus 15A.
The test system of test [14] is Pseudomonas aeruginosa 7A.
The test system of test [15] is Pseudomonas aeruginosa 3A.
Test [16] deals with Pseudomonas aeruginosa MR3007.
The test system of test [17] is Staphylococcus aureus ATCC 33591.
For test [18], the system named is Staphylococcus aureus 930918-3.
For test [19], the system named is Acinetobacter baumannii ATCC 19606.
Test [20] has as its system Brucella abortus 9.49 (per-).
For test [21], the system named is Pseudomonas aeruginosa CUN 4158-02.
The test system of test [22] is Staphylococcus aureus ATCC 43300.
Test [23] deals with Bordetella bronchiseptica CUN 11844-99.
The test system of test [24] is Escherichia coli ATCC 23716.
Test [25] has as its system Staphylococcus aureus SA113.

In brackets after ≈: the same amount, converted by molar mass. Several values for one entry are separate records, joined by “and”; a condition that tells them apart may be missing. Equal values may be shown once.

As usually defined, the MIC is the smallest concentration in the dilution series that meets the test's criterion for growth inhibition. A lower MIC goes with greater potency.

For `CC[C@H](C)[C@H](NC(=O)[C@H](Cc1ccccc1)NC(=O)[C@H](Cc1cnc[nH]1)NC(=O)[C@H](CCCCN)NC(=O)[C@@H](NC(=O)[C@H](Cc1ccccc1)NC(=O)[C@@H]1CCCN1C(=O)[C@H](Cc1ccc(O)cc1)NC(=O)[C@@H]1CCCN1C(=O)[C@H](Cc1ccccc1)NC(=O)[C@H](Cc1cnc[nH]1)NC(=O)[C@H](CC(C)C)NC(=O)[C@H](Cc1cnc[nH]1)NC(=O)[C@H](Cc1ccccc1)NC(=O)[C@H](Cc1cnc[nH]1)NC(=O)[C@@H](N)Cc1ccccc1)[C@@H](C)CC)C(=O)N[C@@H](Cc1cnc[nH]1)C(=O)N[C@@H](CCCN=C(N)N)C(=O)N[C@@H](Cc1ccccc1)C(N)=O` [FHFHLHFPYPFIKHFIHRF], the MIC is no less than 48.7 µM against Escherichia coli W3110; no less than 97.4 µM with Enterococcus faecalis; greater than 195 µM against Staphylococcus aureus; 24.3 µM (≈ 62.5 µg/mL) in test [1]; 24.3 µM (≈ 62.5 µg/mL) in test [2]; 12.5 µM (≈ 32 µg/mL) in test [3]. The compound also displayed an MIC in test [4] of no less than 48.7 µM.
Consider `CSCC[C@H](NC(=O)CNC(=O)[C@H](C)NC(=O)[C@H](CCC(=O)O)NC(=O)[C@H](CCCCN)NC(=O)[C@H](C)NC(=O)[C@@H](NC(=O)CNC(=O)[C@H](CCCCN)NC(=O)[C@H](CC(C)C)NC(=O)[C@H](CC(C)C)NC(=O)[C@H](CC(=O)O)NC(=O)CNC(=O)[C@H](Cc1ccccc1)NC(=O)[C@H](C)NC(=O)CN)C(C)C)C(=O)N[C@@H](CCCCN)C(=O)N[C@@H](CC(C)C)C(=O)N[C@@H](CC(C)C)C(=O)N[C@@H](CC(N)=O)C(=O)N[C@@H](CCSC)C(=O)N[C@@H](C)C(=O)N[C@@H](CCC(N)=O)C(=O)N[C@H]1CSSC[C@@H](C(=O)O)NC(=O)[C@H](CCCCN)NC(=O)CNC(=O)[C@H](CO)NC(=O)[C@H](CC(C)C)NC(=O)[C@H](CCCCN)NC1=O` [GAFGDLLKGVAKEAGMKLLNMAQCKLSGKC], for which the MIC in test [5] is 2 µM (≈ 6.16 µg/mL); in test [6] it was no less than 65 µM; in test [7], 0.5 µM (≈ 1.54 µg/mL); in test [8] it was 32.5 µM (≈ 100 µg/mL); in the test on Serratia rubidaea X01 it was no less than 130 µM; in test [9], 0.5 µM (≈ 1.54 µg/mL). The MIC in test [10] was determined as 8 µM (≈ 24.6 µg/mL); in test [11], 2 µM (≈ 6.16 µg/mL).
For `CC[C@H](C)[C@H](N)C(=O)N[C@@H](CC(N)=O)C(=O)N[C@@H](CCSC)C(=O)N[C@@H](CCCCN)C(=O)N[C@@H](C)C(=O)N[C@@H](CO)C(=O)N[C@@H](C)C(=O)N[C@@H](C)C(=O)N[C@H](C(=O)N[C@@H](C)C(=O)N[C@@H](CCCCN)C(=O)N[C@@H](CCCCN)C(=O)N[C@@H](CC(C)C)C(=O)N[C@@H](CC(C)C)C(=O)O)C(C)C` [INMKASAAVAKKLL], the MIC in [5] was 2.57 µM (≈ 3.75 µg/mL); with Escherichia coli 23A, 10.3 µM (≈ 15 µg/mL); in test [12] it was 10.3 µM (≈ 15 µg/mL); in [8] it was 10.3 µM (≈ 15 µg/mL); in test [13] it was 2.57 µM (≈ 3.75 µg/mL); with Escherichia coli 27A, no less than 41.2 µM. Moreover, the MIC in test [14] was no less than 82.3 µM; against Staphylococcus aureus 6A, 1.3 µM (≈ 1.9 µg/mL); in test [15], 10.3 µM (≈ 15 µg/mL).
`CC[C@H](C)[C@H](NC(=O)[C@H](CCCCN)NC(=O)[C@H](CCCCN)NC(=O)[C@H](CC(C)C)NC(=O)[C@H](CCCCN)NC(=O)[C@H](CCC(=O)O)NC(=O)[C@H](CCCCN)NC(=O)[C@@H](NC(=O)[C@@H](N)CCCCN)[C@@H](C)CC)C(=O)NCC(=O)N[C@@H](CCC(N)=O)C(=O)N[C@@H](CCCCN)C(=O)N[C@H](C(=O)N[C@@H](CCC(N)=O)C(=O)NCC(=O)O)[C@@H](C)CC` [KIKEKLKKIGQKIQG]: the MIC in [16], in test [17] and in [18] was no less than 143 µM throughout.
`CC[C@H](C)[C@H](NC(=O)[C@H](CCCCN)NC(=O)[C@H](CCCCN)NC(=O)[C@H](CO)NC(=O)[C@@H](NC(=O)CNC(=O)[C@H](CCCN=C(N)N)NC(=O)[C@H](CC(C)C)NC(=O)[C@@H](NC(=O)[C@@H](N)CCCCN)[C@@H](C)CC)C(C)C)C(=O)N[C@@H](CCSC)C(=O)N[C@@H](CCCN=C(N)N)C(=O)N[C@@H](CCCN=C(N)N)C(=O)N[C@H](C(=O)N[C@@H](CO)C(=O)N[C@@H](CCCCN)C(=O)N[C@@H](CC(=O)O)C(=O)N[C@H](C(=O)N[C@@H](CC(C)C)C(=O)N[C@H](C(=O)NCC(=O)N[C@@H](CCCCN)C(=O)N[C@@H](CCCCN)C(N)=O)[C@@H](C)O)[C@@H](C)CC)[C@@H](C)CC` [KILRGVSKKIMRRISKDILTGKK]: the MIC in test [19] is 3 µM (≈ 8 µg/mL); in [20], 1.5 µM (≈ 4 µg/mL); in test [21] it was 5.99 µM (≈ 16 µg/mL); in the test on Staphylococcus aureus, 24 µM and 48 µM; in test [22] it was greater than 95.9 µM; in test [8], 5.99 µM (≈ 16 µg/mL). Besides, the MIC against Yersinia pestis KIM pYV was no less than 48 µM; in test [23] it was 0.375 µM (≈ 1 µg/mL); in test [24], 5.99 µM and 4.68 µM; in test [25], no less than 95.9 µM.

For the origin of these results see DBAASP.
